The source of these data is patent US20150030667A1, “COMPOSITIONS AND METHODS FOR TREATING U[…]” (priority 2013, published 2015).

The subject of the data set is bladder (detrusor) contractility of BoNT treated rats. Conditions: rat, in vivo.

As to `CN(C)C(=O)Oc1cccc([N+](C)(C)C)c1` [neostigmine], the amplitude of contraction result is on record as “raised”, the baseline pressure entry is recorded as “without affecting baseline pressure”, the contractility entry is “improves contractility” and the duration of contraction entry is recorded as “significant increase”. Further, the “duration of voiding contraction” value is “increase” and the “interval between bladder contractions” value is recorded as “decrease”.
